What all share (test): Glasshouse assay for herbicidal activity (pre- and post-emergence), percentage phytotoxicity
Type in all cases: in vivo

For assay [1], the system named is Alopecurus myosuroides (ALOMY). As to conditions: Alopecurus myosuroides. On the procedure: (§1) Test—Glasshouse Assay for Herbicidal Activity
(§2) Seeds of a variety of monocotyledonous and dicotyledonous test plants are sown in standard soil in pots. The plants are cultivated for one day (for pre-emergence (PRE)) or for about 12 days (for post-emergence (POST)) under controlled conditions in a glasshouse (warm climate species at 24/18° C., cool climate species at 20/16° C., both at day/night; 16 hours light; 65% humidity).
(§3) The test plants are then grown on, in a glasshouse (greenhouse) under controlled conditions (warm climate species at 24/18° C., cool climate species at 20/16° C., both at day/night; 16 hours light; 65% humidity) and are watered twice daily. 15 days after application of the test herbicide (15 DAA) (for post-emergence), and 20 days after application of the test herbicide (20 DAA) (for pre-emergence), the test plants are evaluated visually, and an assessed percentage phytotoxicity score is given for each herbicidal application on each plant species (with 100%=total damage to plant; 0%=no damage to plant).
(§4) The plant species tested are as follows: Alopecurus myosuroides (ALOMY), Avena fatua (AVEFA), Lolium perenne (LOLPE), Echinochloa crus-galli (ECHCG).

The subject of a further assay is Avena fatua (AVEFA). As to conditions: Avena fatua. As for the experimental part:
as §1, §2, §3, §4

Assay [2] has as its system Echinochloa crus-galli (ECHCG). The following applies: Echinochloa crus-galli. As for the experimental part: as §1, §2, §3, §4
A further assay deals with Lolium perenne (LOLPE). The following applies: Lolium perenne. As for the experimental part: as §1, §2, §3, §4
Where [3] appears, read: post-emergence, 360 h, Rate 250 g/ha, post-emergence, assessed visually 15 DAA, 100%=total damage, 0%=no damage, read-out: Post-emergence herbicidal activity (percentage phytotoxicity) ALOMY POST.
The mark [4] stands for this setting: pre-emergence, 480 h, Rate 250 g/ha, pre-emergence, assessed visually 20 DAA, 100%=total damage, 0%=no damage, read-out: Pre-emergence herbicidal activity (percentage phytotoxicity) ALOMY PRE.
Setting [5] is: post-emergence, 360 h, Rate 250 g/ha, post-emergence, assessed visually 15 DAA, 100%=total damage, 0%=no damage, read-out: Post-emergence herbicidal activity (percentage phytotoxicity) AVEFA POST.
Where [6] appears, read: pre-emergence, 480 h, Rate 250 g/ha, pre-emergence, assessed visually 20 DAA, 100%=total damage, 0%=no damage, read-out: Pre-emergence herbicidal activity (percentage phytotoxicity) AVEFA PRE.
Setting [7] is: post-emergence, 360 h, Rate 250 g/ha, post-emergence, assessed visually 15 DAA, 100%=total damage, 0%=no damage, read-out: Post-emergence herbicidal activity (percentage phytotoxicity) ECHCG POST.
The mark [8] stands for this setting: pre-emergence, 480 h, Rate 250 g/ha, pre-emergence, assessed visually 20 DAA, 100%=total damage, 0%=no damage, read-out: Pre-emergence herbicidal activity (percentage phytotoxicity) ECHCG PRE.
Where [9] appears, read: post-emergence, 360 h, Rate 250 g/ha, post-emergence, assessed visually 15 DAA, 100%=total damage, 0%=no damage, read-out: Post-emergence herbicidal activity (percentage phytotoxicity) LOLPE POST.
Setting [10] is: pre-emergence, 480 h, Rate 250 g/ha, pre-emergence, assessed visually 20 DAA, 100%=total damage, 0%=no damage, read-out: Pre-emergence herbicidal activity (percentage phytotoxicity) LOLPE PRE.
[11] abbreviates: post-emergence, 360 h, 250 g/ha, post-emergence, 15 DAA, visual assessment (100%=total damage, 0%=no damage), read-out: Post-emergence herbicidal activity (percentage phytotoxicity) ALOMY POST.
Where [12] appears, read: pre-emergence, 480 h, 250 g/ha, pre-emergence, 20 DAA, visual assessment (100%=total damage, 0%=no damage), read-out: Pre-emergence herbicidal activity (percentage phytotoxicity) ALOMY PRE.
Where [13] appears, read: post-emergence, 360 h, 250 g/ha, post-emergence, 15 DAA, visual assessment (100%=total damage, 0%=no damage), read-out: Post-emergence herbicidal activity (percentage phytotoxicity) AVEFA POST.
Where [14] appears, read: pre-emergence, 480 h, 250 g/ha, pre-emergence, 20 DAA, visual assessment (100%=total damage, 0%=no damage), read-out: Pre-emergence herbicidal activity (percentage phytotoxicity) AVEFA PRE.
Setting [15] is: post-emergence, 360 h, 250 g/ha, post-emergence, 15 DAA, visual assessment (100%=total damage, 0%=no damage), read-out: Post-emergence herbicidal activity (percentage phytotoxicity) ECHCG POST.
[16] abbreviates: pre-emergence, 480 h, 250 g/ha, pre-emergence, 20 DAA, visual assessment (100%=total damage, 0%=no damage), read-out: Pre-emergence herbicidal activity (percentage phytotoxicity) ECHCG PRE.
Where [17] appears, read: post-emergence, 360 h, 250 g/ha, post-emergence, 15 DAA, visual assessment (100%=total damage, 0%=no damage), read-out: Post-emergence herbicidal activity (percentage phytotoxicity) LOLPE POST.
[18] abbreviates: pre-emergence, 480 h, 250 g/ha, pre-emergence, 20 DAA, visual assessment (100%=total damage, 0%=no damage), read-out: Pre-emergence herbicidal activity (percentage phytotoxicity) LOLPE PRE.
The mark [19] stands for this setting: post-emergence, 360 h, Rate 250 g/ha, post-emergence, visual assessment 15 DAA, 100%=total damage, 0%=no damage, read-out: Post-emergence herbicidal activity (percentage phytotoxicity) ALOMY POST.
Where [20] appears, read: pre-emergence, 480 h, Rate 250 g/ha, pre-emergence, visual assessment 20 DAA, 100%=total damage, 0%=no damage, read-out: Pre-emergence herbicidal activity (percentage phytotoxicity) ALOMY PRE.
Setting [21] is: post-emergence, 360 h, Rate 250 g/ha, post-emergence, visual assessment 15 DAA, 100%=total damage, 0%=no damage, read-out: Post-emergence herbicidal activity (percentage phytotoxicity) AVEFA POST.
[22] abbreviates: pre-emergence, 480 h, Rate 250 g/ha, pre-emergence, visual assessment 20 DAA, 100%=total damage, 0%=no damage, read-out: Pre-emergence herbicidal activity (percentage phytotoxicity) AVEFA PRE.
Setting [23] is: post-emergence, 360 h, Rate 250 g/ha, post-emergence, visual assessment 15 DAA, 100%=total damage, 0%=no damage, read-out: Post-emergence herbicidal activity (percentage phytotoxicity) ECHCG POST.
The mark [24] stands for this setting: pre-emergence, 480 h, Rate 250 g/ha, pre-emergence, visual assessment 20 DAA, 100%=total damage, 0%=no damage, read-out: Pre-emergence herbicidal activity (percentage phytotoxicity) ECHCG PRE.
The mark [25] stands for this setting: post-emergence, 360 h, Rate 250 g/ha, post-emergence, visual assessment 15 DAA, 100%=total damage, 0%=no damage, read-out: Post-emergence herbicidal activity (percentage phytotoxicity) LOLPE POST.
The mark [26] stands for this setting: pre-emergence, 480 h, Rate 250 g/ha, pre-emergence, visual assessment 20 DAA, 100%=total damage, 0%=no damage, read-out: Pre-emergence herbicidal activity (percentage phytotoxicity) LOLPE PRE.

Read-outs that look alike come from different tables or passages of the source.

For the molecule `CCc1cc(OCC(F)(F)F)cc(C)c1C1C(=O)CC(CC(=O)NCc2cccc(F)c2)C1=O` (stereo not shown) [Compound B214], the pest or weed control at 250 g/ha in assay [1] (post-emergence, 360 h, POST-emergence, rate 250 g/ha, visual score 15 DAA (100%=total damage, 0%=no damage), read-out: Post-emergence herbicidal activity (percentage phytotoxicity) ALOMY POST) amounted to 100%; in assay [1] (pre-emergence, 480 h, PRE-emergence, rate 250 g/ha, visual score 20 DAA (100%=total damage, 0%=no damage), read-out: Pre-emergence herbicidal activity (percentage phytotoxicity) ALOMY PRE), 100%; with Avena fatua (AVEFA) (post-emergence, 360 h, POST-emergence, rate 250 g/ha, visual score 15 DAA (100%=total damage, 0%=no damage), read-out: Post-emergence herbicidal activity (percentage phytotoxicity) AVEFA POST) it was 100%; with Avena fatua (AVEFA) (pre-emergence, 480 h, PRE-emergence, rate 250 g/ha, visual score 20 DAA (100%=total damage, 0%=no damage), read-out: Pre-emergence herbicidal activity (percentage phytotoxicity) AVEFA PRE), 90%; in assay [2] (post-emergence, 360 h, POST-emergence, rate 250 g/ha, visual score 15 DAA (100%=total damage, 0%=no damage), read-out: Post-emergence herbicidal activity (percentage phytotoxicity) ECHCG POST), 100%; in assay [2] (pre-emergence, 480 h, PRE-emergence, rate 250 g/ha, visual score 20 DAA (100%=total damage, 0%=no damage), read-out: Pre-emergence herbicidal activity (percentage phytotoxicity) ECHCG PRE) it was 100%. Also, the pest or weed control at 250 g/ha with Lolium perenne (LOLPE) (post-emergence, 360 h, POST-emergence, rate 250 g/ha, visual score 15 DAA (100%=total damage, 0%=no damage), read-out: Post-emergence herbicidal activity (percentage phytotoxicity) LOLPE POST) came to 100%; with Lolium perenne (LOLPE) (pre-emergence, 480 h, PRE-emergence, rate 250 g/ha, visual score 20 DAA (100%=total damage, 0%=no damage), read-out: Pre-emergence herbicidal activity (percentage phytotoxicity) LOLPE PRE), 90%.
Take `CC#Cc1cc(C)c(C2C(=O)CC(CC(=O)NC(C)CC)C2=O)c(C)c1` (stereo not shown) [Compound A33]: the pest or weed control at 250 g/ha (in assay [1] (setting [3]); in assay [1] (setting [4]); in the assay on Avena fatua (AVEFA) (setting [5]); in the assay with Avena fatua (AVEFA) (setting [6]); in assay [2] (setting [7]); in assay [2] (setting [8])) was 100% throughout. The pest or weed control at 250 g/ha with Lolium perenne (LOLPE) (setting [9]) and in the assay on Lolium perenne (LOLPE) (setting [10]) was 100% each time.
Consider `Cc1cc(-c2ncc(F)cn2)cc(C)c1C1C(=O)CC(CC(N)=O)C1=O` (stereo not shown) [Compound B107], for which the pest or weed control at 250 g/ha was 80% in assay [1] (setting [11]); 60% in assay [1] (setting [12]); 90% in the assay with Avena fatua (AVEFA) (setting [13]); 10% in the assay with Avena fatua (AVEFA) (setting [14]); 80% in assay [2] (setting [15]); 60% in assay [2] (setting [16]). Further, the pest or weed control at 250 g/ha in the assay on Lolium perenne (LOLPE) (setting [17]) stood at 80%; with Lolium perenne (LOLPE) (setting [18]) it was 20%.
Consider `Cc1cc(C)c(C2C(=O)CC(CC(=O)NC3CC3(F)F)C2=O)c(C)c1` (stereo not shown) [Compound B98], for which the pest or weed control at 250 g/ha in assay [1] (setting [11]) came to 60%; in assay [1] (setting [12]), 60%; with Avena fatua (AVEFA) (setting [13]) it was 20%; in the assay with Avena fatua (AVEFA) (setting [14]), 0%; in assay [2] (setting [15]), 60%; in assay [2] (setting [16]) it was 80%. Also, the pest or weed control at 250 g/ha in the assay on Lolium perenne (LOLPE) (setting [17]) was determined as 80%; in the assay on Lolium perenne (LOLPE) (setting [18]), 90%.
Regarding `C#CC(C)(C)NC(=O)CC1CC(=O)C(c2c(C)cc(C)cc2C)C1=O` (stereo not shown) [Compound A11], the pest or weed control at 250 g/ha is 80% in assay [1] (setting [3]); 70% in assay [1] (setting [4]); 70% in the assay with Avena fatua (AVEFA) (setting [5]); 50% in the assay with Avena fatua (AVEFA) (setting [6]); 80% in assay [2] (setting [7]); 70% in assay [2] (setting [8]). In addition, the pest or weed control at 250 g/ha with Lolium perenne (LOLPE) (setting [9]) and with Lolium perenne (LOLPE) (setting [10]) was 70% throughout.
Regarding `Cc1cc(-c2ccc(Cl)cn2)cc(C)c1C1C(=O)CC(CC(=O)NCc2cccc(F)c2)C1=O` (stereo not shown) [Compound B357], the pest or weed control at 250 g/ha in assay [1] (setting [19]) was determined as 90%; in assay [1] (setting [20]) it was 80%; in the assay on Avena fatua (AVEFA) (setting [21]) it was 100%; with Avena fatua (AVEFA) (setting [22]) it was 90%; in assay [2] (setting [23]), 100%; in assay [2] (setting [24]) it was 100%. The results for the pest or weed control at 250 g/ha with Lolium perenne (LOLPE) (setting [25]) and in the assay with Lolium perenne (LOLPE) (setting [26]) were 90% and 100%, respectively.
As to `CC#Cc1cc(C)c(C2C(=O)CC(CC(=O)N(C)CCC)C2=O)c(CC)c1` (stereo not shown) [Compound A79], the pest or weed control at 250 g/ha (in assay [1] (setting [3]); in assay [1] (setting [4]); with Avena fatua (AVEFA) (setting [5]); in the assay on Avena fatua (AVEFA) (setting [6]); in assay [2] (setting [7]); in assay [2] (setting [8])) was 100% in each case. Moreover, the pest or weed control at 250 g/ha with Lolium perenne (LOLPE) (setting [9]) and in the assay with Lolium perenne (LOLPE) (setting [10]) was 100% each time.
As for `Cc1cc(-c2ccc(F)cn2)cc(C)c1C1C(=O)CC(CC(=O)NCC2CC2)C1=O` (stereo not shown) [Compound B386], the pest or weed control at 250 g/ha was found to be 100% in assay [1] (setting [19]); 100% in assay [1] (setting [20]); 100% in the assay with Avena fatua (AVEFA) (setting [21]); 100% in the assay with Avena fatua (AVEFA) (setting [22]); 40% in assay [2] (setting [23]); 100% in assay [2] (setting [24]). Also, the pest or weed control at 250 g/ha with Lolium perenne (LOLPE) (setting [25]) worked out at 90%; in the assay with Lolium perenne (LOLPE) (setting [26]) it was 100%.

Source of the values: patent US10206394B2, “Herbicidal compounds” (Syngenta Participations AG, priority 2014, dated 2019).
